pIC50: −log10 of the molar value.
Columns and labels:
[1] = test system: paw edema induced by carrageenan; experiment: Paw edema carrageenan-induced inflammation; type: in vivo, rat; settings: for volume of paw edema (mean Δml ± s.e. vs basal paw volume): 60' after carrageenan, po 1 h before carrageenan, male Wistar rats; for volume of paw edema (mean Δml ± s.e. vs basal paw volume) / reduction of edema vs. the control vehicle (inhibition): Compound A 30 mg/kg, indomethacin 5 mg/kg; for reduction of edema vs. the control vehicle (inhibition): 4 h after carrageenan injection, oral
Source text: The anti-inflammatory activity of the α-aminoamide compounds of formula (I) have proven effective in a rat model of inflammation induced by carrageenan injection.
The potential anti-inflammatory effect of (S)-(+)-2-[4-(2-fluorobenzyloxy)-benzylamino]-propanamide (“compound A”) was investigated in the rat model of inflammatory acute pain induced by subplantar injection of carrageenan. Itraplantar injection of carrageenan elicit a time-dependent increase in paw volume.
Male Wistar rats of 175-200 grams were used. The left hind paw was injected with 100 μl of carrageenan (2% w/v in saline). Compound A (30 mg/kg), indomethacin (5 mg/kg), or control vehicle (such as distilled water) were orally administered 1 h before carrageenan injection. The paw volume was measured with a plethysmometer (Ugo Basile) immediately before (basal) and 1, 2, 3, 4 and 5 h after the carrageenan injection.

[2] = test system: inflamed joint induced by carrageenan; settings: cited from earlier work
[3] = test system: KCl-evoked SP release from spinal cord superfused synaptosomes; experiment: Substance P (SP) release from rat spinal cord synaptosomes; type: cell-based; settings: KCl (35 mM) evoked, RIA, concentrations 0.1 to 30 μM, read-out: IC50 for reducing evoked SP release
Description: Male adult Sprague-Dawley rats were used. Following decapitation, the spinal cord was removed and homogenized in sucrose buffer 0.32 M pH 7.4. Samples were centrifuged at 12000 g for 20 minutes and the synaptosomal fraction was resuspended in physiological buffer. SP release from spinal cord superfused synaptosomes was induced by KCl (35 mM) and measured by RIA method (see Lee C M. et al. (1980) “The development and application of a novel N-terminal directed substance P antiserum”, Life Science 27 (7):535-543).

Compound	volume of paw edema (mean Δml ± s.e. vs basal paw volume) [1]	reduction of edema vs. the control vehicle (inhibition) [1]	mechanical hyperalgesia (in words) [2]	swelling and stiffness of the inflamed joint (in words) [2]	pIC50 [3]	paw edema formation (in words) ([1]; Compound A 30 mg/kg oral, 1-5 h after carrageenan)
COc1ccc2c(c1)c(CC(=O)O)c(C)n2C(=O)c1ccc(Cl)cc1 [Indomethacin, indomethacin]	0.29 ± 0.04 mL	about 50%	–	–	–	–
Cc1cccc(C)c1OCC(C)N (stereo not shown) [mexeletine]	–	–	able to reverse the mechanical hyperalgesia	without any effect	–	–
C[C@H](NCc1ccc(OCc2ccccc2F)cc1)C(N)=O [Compound A, (S)-(+)-2-[4-(2-fluorobenzyloxy)-benzylamino]-propanamide]	0.19 ± 0.03 mL	40%	–	–	5.67	prevented paw edema formation at all time points considered
C[C@@H](CN1CC[C@@]2(C)c3cccc(O)c3C[C@@H]1C2(C)C)OCc1ccccc1 [crobenetine]	–	–	able to reverse the mechanical hyperalgesia	without any effect	–	–

From patent US20100016440A1, “ALPHA-AMINOAMIDE DERIVATIVES USEFUL AS ANTI-INFLAMMATORY AGENTS” (NEWRON PHARMACEUTICALS S.P.A., priority 2003, published 2010)
